Results reported in ChEMBL document CHEMBL2094269, “WEHI/Eskitis Trypanosoma b. brucei screening data”.
Where “and” joins values, the source holds several entries; their conditions need not be identical. Equal values may be shown once.

Legend:
[1] = DNDI: Cytotoxicity against human MRC-5 lung fibroblast cells.; conditions: IC50
[2] = tested on: Trypanosoma brucei brucei; test: microbe, parasite or virus in culture; assay type: functional, organism-based, STIB 795
Description: DNDI: Inhibition of Human African Trypanosomiasis (HAT), STIB 795, in vitro

O=C(NCCCN1CCCC1)c1ccc(-c2ccccc2)s1
IC50 [1]: > 20.8 µM | IC50 ([2]; Trypanosoma brucei, STIB 795): 5.51 µM

CCc1ccccc1Nc1nc(-c2ccc(O)cc2O)cs1
IC50 [1]: > 41.7 µM | IC50 ([2]; Trypanosoma brucei, STIB 795): 3.63 µM

COc1nccnc1N/N=C/c1cc(Cl)cc(Cl)c1O
IC50 [1]: > 20.8 µM | IC50 ([2]; Trypanosoma brucei, STIB 795): 5.19 µM

Cc1cc(C)[n+]2nc3n(-c4ccccc4)c(C)cc(C)c-3c2n1
IC50 [1]: > 41.7 µM | IC50 ([2]; Trypanosoma brucei, STIB 795): 4.46 µM

CC(=O)O[C@H]1CCC2C3CCC4=CC(=O)CC[C@]4(C)C3C(=O)C[C@@]21C (some centres undefined)
IC50 [1]: 6.4 µM | IC50 ([2]; Trypanosoma brucei, STIB 795): 0.39 µM

COc1ccc(C2=Nn3c([n+](C)c4cc(C)c(C)cc43)SC2)cc1OC
IC50 [1]: > 20.8 µM | IC50 ([2]; Trypanosoma brucei, STIB 795): 5.33 µM

Clc1ccc2nnnc(-c3ccccc3)c2c1
IC50 [1]: 4.48 µM | IC50 ([2]; Trypanosoma brucei, STIB 795): 2.81 µM

Clc1ccc(CCNCc2c[nH]c3ccccc23)c(Cl)c1
IC50 [1]: > 20.8 µM | IC50 ([2]; Trypanosoma brucei, STIB 795): 5.33 µM

CC(C)(C)OC(=O)N/N=C\c1ccc(-c2cccc(Cl)c2)o1
IC50 [1]: > 41.7 µM | IC50 ([2]; Trypanosoma brucei, STIB 795): 7.35 µM

Cc1c(C)c(C)c2c(CC(C)N)c[nH]c2c1C (centres undefined)
IC50 [1]: > 41.7 µM | IC50 ([2]; Trypanosoma brucei, STIB 795): 4.24 µM

CCOC(=O)c1cnc2c(OC)cccc2c1NCCCO
IC50 [1]: > 41.7 µM | IC50 ([2]; Trypanosoma brucei, STIB 795): 8.61 µM

CCN1/C(=C/C=C/c2sc3c(C)cccc3[n+]2CC)Sc2c(C)cccc21
IC50 [1]: > 20.8 µM | IC50 ([2]; Trypanosoma brucei, STIB 795): 0.501 µM

CCCCCc1ccc(-c2ccc(C(=N)N)cc2)cc1
IC50 [1]: 15.5 µM | IC50 ([2]; Trypanosoma brucei, STIB 795): 5.73 µM

CCN1/C(=C/C(=C/c2sc3ccccc3[n+]2CC)OC)Sc2ccccc21
IC50 [1]: 2.25 µM | IC50 ([2]; Trypanosoma brucei, STIB 795): 0.524 µM

Cc1cc2c(c(=O)o1)C(c1ccc(Br)s1)C(C#N)=C(N)O2 (centres undefined)
IC50 [1]: > 41.7 µM | IC50 [2]: 5.05 µM and > 10.4 µM

Cc1ccccc1/N=N/C(=N\Nc1ccccc1)c1ccccc1
IC50 [1]: > 41.7 µM | IC50 ([2]; Trypanosoma brucei, STIB 795): 1.64 µM

CCCCC(=O)NC(c1cccs1)c1cc(Cl)c2cccnc2c1O (centres undefined)
IC50 [1]: > 41.7 µM | IC50 ([2]; Trypanosoma brucei, STIB 795): 0.666 µM

CC(C)(C)n1ncc(SC/C(=N\O)c2ccccc2)c(Cl)c1=O
IC50 [1]: > 41.7 µM | IC50 ([2]; Trypanosoma brucei, STIB 795): 2.37 µM

C/C(CC(C)(C)C1CCCCC1)=N/NC(N)N
IC50 [1]: > 4.17 µM | IC50 ([2]; Trypanosoma brucei, STIB 795): 1.4 µM

CCCc1cc(=O)[nH]c(-n2nc(C)cc2NC(=O)c2ccc(OC)c(OC)c2)n1
IC50 [1]: > 41.7 µM | IC50 ([2]; Trypanosoma brucei, STIB 795): 5.28 µM

Oc1c(/C=N/NC(=S)Nc2cccc(F)c2)cc2c3c1CCCN3CCC2
IC50 [1]: > 41.7 µM | IC50 ([2]; Trypanosoma brucei, STIB 795): 3.08 µM

Cc1ccsc1/C=C(\C(=O)NCc1cccnc1)S(=O)(=O)c1ccccc1
IC50 [1]: > 20.8 µM | IC50 ([2]; Trypanosoma brucei, STIB 795): 5.29 µM

CCCN1C(=O)C(O)(CC(=O)c2cccnc2)c2cc(Br)ccc21 (centres undefined)
IC50 [1]: > 41.7 µM | IC50 ([2]; Trypanosoma brucei, STIB 795): 0.617 µM

c1ccc(NN=C(c2ccccn2)c2ccccn2)nc1
IC50 [1]: > 1.04 µM | IC50 ([2]; Trypanosoma brucei, STIB 795): 0.468 µM

Cc1ccc(-c2cc(C(F)F)nc(SC3CC(=O)C4OCC3O4)n2)cc1 (centres undefined)
IC50 [1]: > 41.7 µM | IC50 [2]: > 10.4 µM and 5.2 µM

CN(C)c1ccc(C2=Nc3cccc4cccc2c34)cc1
IC50 [1]: > 41.7 µM | IC50 ([2]; Trypanosoma brucei, STIB 795): 0.434 µM

CC1(C)CC(=O)c2sc(NC(=O)c3sc4ccccc4c3Cl)nc2C1
IC50 [1]: > 41.7 µM | IC50 ([2]; Trypanosoma brucei, STIB 795): 0.442 µM

C=CCc1cccc(/C=N/NC(=O)c2cc(-c3ccc4ccccc4c3)n[nH]2)c1O
IC50 [1]: > 41.7 µM | IC50 ([2]; Trypanosoma brucei, STIB 795): 3 µM

CC1CC(C)(C)Nc2ccc(OCc3cccc4ccccc34)cc21 (centres undefined)
IC50 [1]: > 20.8 µM | IC50 ([2]; Trypanosoma brucei, STIB 795): 0.832 µM

CC1(C)CC(N2COc3c(cc(Cl)c4cccnc34)C2)CC(C)(C)N1
IC50 [1]: > 20.8 µM | IC50 ([2]; Trypanosoma brucei, STIB 795): 5.53 µM

Cc1conc1NC(c1cccs1)c1ccc2cccnc2c1O (centres undefined)
IC50 [1]: > 20.8 µM | IC50 ([2]; Trypanosoma brucei, STIB 795): 5.74 µM

CC1(C)CC(=S)C=C(N2CCCCC2)C1
IC50 [1]: > 41.7 µM | IC50 ([2]; Trypanosoma brucei, STIB 795): 1.95 µM

Oc1c(C(c2ccccc2Cl)N2CCOCC2)ccc2cccnc12 (centres undefined)
IC50 [1]: > 20.8 µM | IC50 ([2]; Trypanosoma brucei, STIB 795): 5.59 µM

CC(C)CC(=O)/C(=C/c1ccc(Cl)cc1Cl)n1cncn1
IC50 [1]: > 20.8 µM | IC50 ([2]; Trypanosoma brucei, STIB 795): 2.27 µM

CN1/C(=C/C=C/c2ccc3ccccc3[n+]2C)C=Cc2ccccc21
IC50 [1]: > 10.4 µM | IC50 ([2]; Trypanosoma brucei, STIB 795): 0.077 µM

CC[N+]1=C(/C=C/N(C)C)c2cccc3cccc1c23
IC50 [1]: > 20.8 µM | IC50 ([2]; Trypanosoma brucei, STIB 795): 3.41 µM

CC(C)c1ccc(-c2csc(NC(=O)C3C4CCC(O4)C3C(=O)O)n2)cc1 (centres undefined)
IC50 [1]: > 41.7 µM | IC50 [2]: 0.879 µM | IC50 ([2]; Trypanosoma brucei, STIB 795): 1.56 µM

CCn1c(Cc2nc3ccccc3n2CC)nc2ccccc21
IC50 [1]: > 41.7 µM | IC50 ([2]; Trypanosoma brucei, STIB 795): 3.87 µM

Clc1cccc(CNC2=Nc3ccccc3NC23CCNCC3)c1
IC50 [1]: 9.14 µM | IC50 ([2]; Trypanosoma brucei, STIB 795): 1.2 µM

Cc1ccc2[nH]c3c(c2c1)CCC/C3=N\N=C(N)N
IC50 [1]: > 20.8 µM | IC50 ([2]; Trypanosoma brucei, STIB 795): 8.57 µM

COc1ccc(CCON2C(N)=NC(N)=NC2(C)C)cc1
IC50 [1]: > 4.17 µM | IC50 ([2]; Trypanosoma brucei, STIB 795): ≤ 3.11 µM

Cc1ccc(C23CC4CC(CC(NC(=O)NCCN(C)C)(C4)C2)C3)cc1
IC50 [1]: > 20.8 µM | IC50 ([2]; Trypanosoma brucei, STIB 795): 4.01 µM

N=c1n(CCO)c2ccccc2n1CCOc1ccc(Cl)cc1Cl
IC50 [1]: 8.93 µM | IC50 ([2]; Trypanosoma brucei, STIB 795): 2.63 µM

C=CCn1c(=N)n(CC(O)COc2ccccc2C)c2ccccc21 (centres undefined)
IC50 [1]: > 20.8 µM | IC50 ([2]; Trypanosoma brucei, STIB 795): 0.72 µM

CCC1CO/C(=C2\Sc3ccccc3C2=O)N1 (centres undefined)
IC50 [1]: > 20.8 µM | IC50 ([2]; Trypanosoma brucei, STIB 795): 5.08 µM

O=C(c1ccc(Cl)cc1)C(CN1CCOCC1)c1ccccc1 (centres undefined)
IC50 [1]: > 20.8 µM | IC50 [2]: 4 µM | IC50 ([2]; Trypanosoma brucei, STIB 795): 3.11 µM

COc1ccc(-c2cc(-c3ccccc3)c(C#N)c([S+](C)[O-])n2)cc1 (centres undefined)
IC50 [1]: > 41.7 µM | IC50 ([2]; Trypanosoma brucei, STIB 795): 0.206 µM

CCn1c(=N)n(CCCOc2ccc(F)cc2)c2ccccc21
IC50 [1]: > 20.8 µM | IC50 ([2]; Trypanosoma brucei, STIB 795): 5.46 µM

COc1ccc2[nH]c(C)c(CCNCc3cn(C)c4ccccc34)c2c1
IC50 [1]: > 20.8 µM | IC50 ([2]; Trypanosoma brucei, STIB 795): 4.74 µM

CCC(/C=C1\Sc2ccccc2N1C)=C\c1sc2ccccc2[n+]1C
IC50 [1]: 2.28 µM | IC50 ([2]; Trypanosoma brucei, STIB 795): 0.403 µM

CC(C)(C)c1ccc(C(=O)O/N=C(\N)c2ccncc2)cc1
IC50 [1]: > 41.7 µM | IC50 ([2]; Trypanosoma brucei, STIB 795): 0.95 µM

CCOC(=O)N/N=C1/c2ccccc2-c2nc3nonc3nc21
IC50 [1]: > 20.8 µM | IC50 ([2]; Trypanosoma brucei, STIB 795): 0.8 µM

N=c1n(Cc2ccccc2)c2ccccc2n1CC(O)COc1ccccc1 (centres undefined)
IC50 [1]: > 41.7 µM | IC50 ([2]; Trypanosoma brucei, STIB 795): 7.55 µM

Nc1ccc2ccc3cccnc3c2n1
IC50 [1]: > 4.17 µM | IC50 ([2]; Trypanosoma brucei, STIB 795): 2.4 µM

CCc1cc(Sc2ccccc2NC(=O)C2CCCCC2)n2nc(C)nc2n1
IC50 [1]: > 41.7 µM | IC50 ([2]; Trypanosoma brucei, STIB 795): 5.22 µM

COc1ccc(C2=C(C)C(=O)C(C)=C(C)C2=O)cc1
IC50 [1]: > 20.8 µM | IC50 ([2]; Trypanosoma brucei, STIB 795): 5.55 µM

COc1cc2nc(NC3CCCc4ccccc43)nc(N)c2cc1OC (centres undefined)
IC50 [1]: > 4.17 µM | IC50 ([2]; Trypanosoma brucei, STIB 795): 4.75 µM

CNCCCC1Sc2ccccc2Oc2ccccc21 (centres undefined)
IC50 [1]: > 41.7 µM | IC50 ([2]; Trypanosoma brucei, STIB 795): 4.7 µM

Cc1ccc2ccc3ccc(C)nc3c2n1 [NEOCUPROINE]
IC50 [1]: > 20.8 µM | IC50 ([2]; Trypanosoma brucei, STIB 795): 0.557 µM

NCCc1c[nH]c2ccc(C3CCCCC3)cc12
IC50 [1]: > 20.8 µM | IC50 ([2]; Trypanosoma brucei, STIB 795): 1.28 µM

Cc1cc(C)c2nc(C)cc(Nc3cccc(O)c3)c2c1
IC50 [1]: > 20.8 µM | IC50 ([2]; Trypanosoma brucei, STIB 795): 4.93 µM

O=C(CCN1CCCCC1)Nc1ccc(OC(F)(F)Cl)cc1
IC50 [1]: > 41.7 µM | IC50 [2]: 3.9 µM | IC50 ([2]; Trypanosoma brucei, STIB 795): 4.27 µM

Cc1ccc(-c2cn3c([n+]2-c2ccc(C)cc2)CCCCC3)cc1
IC50 [1]: > 20.8 µM | IC50 ([2]; Trypanosoma brucei, STIB 795): 6.4 µM

Cc1ccc(C23CC4CC(CC(CN)(C4)C2)C3)cc1C
IC50 [1]: > 20.8 µM | IC50 ([2]; Trypanosoma brucei, STIB 795): 0.91 µM

Cc1c2[nH]c3ccccc3c2c2c([n+]1C)CC(C)(C)CC2
IC50 [1]: > 41.7 µM | IC50 ([2]; Trypanosoma brucei, STIB 795): 8.67 µM

Cc1cc(Cl)cc(Cl)c1OCCCCCN1CCNCC1
IC50 [1]: > 20.8 µM | IC50 ([2]; Trypanosoma brucei, STIB 795): 2.28 µM

COc1ccc2c(C)cc(Sc3cccc4cccnc34)nc2c1
IC50 [1]: > 41.7 µM | IC50 ([2]; Trypanosoma brucei, STIB 795): 5.58 µM

CC(C)(C)C1C/C(=C\c2cccnc2)C(=O)/C(=C/c2cccnc2)C1 (centres undefined)
IC50 [1]: > 4.17 µM | IC50 ([2]; Trypanosoma brucei, STIB 795): 0.098 µM
